Source: article PMC8580996, “2-Oxoglutarate derivatives can selectively enhance or inhibit the activity of human oxygenases” (Nature Communications, 2021)
Several values for one entry are separate records, joined by “and”; a condition that tells them apart may be missing. Equal entries are not always repeated. Where two headings read alike, the source gives them in different places.

What was measured:
FIH [1] = molecular target: T1, FIH (Homo sapiens, UniProt Q9NWT6); assay: 1H NMR assay of FIH-catalyzed oxidative decarboxylation of cosubstrate, with SPE-MS of final mixture; type: biochemical; settings: 5 μM FIH, 150 μM CA1-20, 150 μM cosubstrate; for hydroxylation of CA1-20 peptide in final reaction mixture (SPE-MS): t = 10 min; for FIH-catalyzed conversion of cosubstrate to succinate / 2-methylsuccinate (1H NMR): within 5 min
T1 sequence (Q9NWT6 whole entry): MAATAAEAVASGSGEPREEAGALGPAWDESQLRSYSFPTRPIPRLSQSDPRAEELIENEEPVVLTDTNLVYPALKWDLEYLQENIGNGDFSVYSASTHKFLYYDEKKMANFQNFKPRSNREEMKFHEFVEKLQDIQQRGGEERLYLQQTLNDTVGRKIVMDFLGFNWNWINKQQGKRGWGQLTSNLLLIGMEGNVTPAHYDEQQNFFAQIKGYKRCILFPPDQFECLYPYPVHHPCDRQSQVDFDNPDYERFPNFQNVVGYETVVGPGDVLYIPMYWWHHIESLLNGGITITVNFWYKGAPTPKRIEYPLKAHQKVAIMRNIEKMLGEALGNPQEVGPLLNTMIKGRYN
Experimental: Supplementary Figure 2. […] FIH- […]
catalyzed oxidative decarboxylation of 2OG was monitored using a Bruker AVIII 700 NMR machine equipped with a 5 mm 1H(13C/15N) inverse cryoprobe; spectra were analyzed using the Bruker TopSpin 3.6.1 software.
50 μM ammonium iron(II) sulfate hexahydrate (FAS, (NH4)2Fe(SO4)2·6H2O) in 50 mM aqueous Tris-d11 containing 10% v/v D2O (pH 7.5, 25° C). The ratio of the CA 1-20 peptide and the hydroxylated CA 1-20(Ox) peptide, which is the product of the F IH-catalyzed hydroxylation reaction, was determined using SPE-MS after NMR […]
(a) Close-up (3.0-2.2 ppm) of the 1H NMR spectrum of commercial 2OG in 50 mM aqueous Tris-d11 containing 10%v/v D2O (pH 7.5, 25° C); (b) Close-up (3.0-2.2 ppm) of the 1H NMR spectrum of commercial succinate in 50 […]
FIH-catalyzed oxidative decarboxylation of 3-methyl-2OG (1) was monitored using a Bruker AVIII 700 NMR machine equipped with a 5 mm 1H(13C/15N) inverse cryoprobe; spectra were analyzed using the […]
Bruker TopSpin 3.6.1 software. […]
in 50 mM aqueous Tris -d11 containing 10% v/v D2O (pH 7.5, 25° C). The ratio of the CA 1-20 peptide and the hydroxylated CA 1-20(Ox) peptide, which is the product of the FIH -catalyzed hydroxylation reaction, was […]
(a) Close -up (3.4 -0.9 ppm) of the 1H NMR spectrum of synthetic 1 in 50 mM aqueous Tris-d11 containing 10% v/v D2O (pH 7.5, 2 5° C); ( b) Close -up (3.4 -0.9 ppm) of the 1H NMR spectrum of commercial 2 -methylsuccinate ( 36) […]
FIH-catalyzed oxidative decarboxylation of 4-methyl-2OG (12) was monitored using a Bruker AVIII 700 NMR machine equipped with a 5 mm 1H(13C/15N) inverse cryoprobe; spectra were analyzed using the Bruker TopSpin 3.6.1 software.
(NH4)2Fe(SO4)2·6H2O) in 50 mM aqueous Tris-d11 containing 10% v/v D2O (pH 7.5, 25° C). The ratio of the CA 1-20 peptide and the hydroxylated CA 1-20(Ox) peptide, which is the product of the FI H-catalyzed hydroxylation […]
(a) Close -up (3.3 -0.9 ppm) of the 1H NMR spectrum of synthetic 12 in 50 mM aqueous Tris-d11 containing 10% v/v D2O (pH 7.5, 25° C); ( b) Close -up (3.4 -0.9 ppm) of the 1H NMR spectrum of commercial 2 -methylsuccinate ( 36)

FIH [2] = molecular target: T1, FIH; assay: SPE-MS FIH inhibition assay; type: biochemical; on IC50 FIH: 0.15 µM FIH
How it was run: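 Compounds in an 11-point, about threefold series (top 100 μM, 0.5% DMSO) were preincubated 15 min at 20 °C with 0.3 μM His6-FIH enzyme mixture. They were then mixed with substrate mixture containing 10.0 μM HIF-1α788–822, 200 μM ascorbate, 20.0 μM 2OG and 20.0 μM Fe(II) in 50 mM Tris/50 mM NaCl pH 7.5. After 15 min, formic acid quench and SPE-MS gave % hydroxylation.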

[3] = source data of Table 3, single independent replicates
[4] = source data of Table 3, single independent replicates, read-out: FIH IC50, independent replicate

Compound | hydroxylation of CA1-20 peptide in final reaction mixture (SPE-MS) (FIH [1]) | FIH-catalyzed conversion of cosubstrate to succinate / 2-methylsuccinate (1H NMR) (FIH [1]) | FIH IC50, independent replicate (FIH [2]; [3]) | IC50 (FIH [2]; [4]) | other results
O=C(O)CCC(=O)C(=O)O [2OG, 2-Oxoglutarate] | > 95% | ~ 70% | – | – | –
CC(CC(=O)O)C(=O)C(=O)O (stereo not drawn) [compound 1, 3-methyl-2OG] | > 90% | ~ 70% | not inhibiting | – | –
CC(CC(=O)C(=O)O)C(=O)O (stereo not drawn) [compound 12, 4-methyl-2OG] | > 95% | ~ 65% | not inhibiting | – | –
CCC(CC(=O)C(=O)O)C(=O)O (stereo not drawn) [compound 14, 4-ethyl-2OG] | – | – | – | 27.8 µM and 13.3 µM and 16.6 µM | IC50 (FIH [2]; […] FIH, 5.0 μM HIF-1α788-822, 10 μM 2OG, mean of two runs, read-out: IC50 FIH): 19.3 µM
O=C(O)C(=O)CC(CCCc1ccccc1)C(=O)O (stereo not drawn) [compound 18, 4-(3-phenylpropyl)-2OG] | – | – | – | 0.864 µM and 0.923 µM | –
O=C(O)C(=O)C1CCC(C(=O)O)C1 (stereo not drawn) [compound 22, 3-(carboxycarbonyl)cyclopentane-1-carboxylic acid] | – | – | – | – | IC50 FIH (FIH [2]; […] FIH, 5.0 μM HIF-1α788-822, 10 μM 2OG, mean of two runs): inactive
